Measurements from patent US9718819B2 (Merck Sharp & Dohme Corp., priority 2012, dated 2017).
pIC50: −log10 of the molar value.

Target: HIV-1 RT wild-type enzyme (Human immunodeficiency virus type 1 group M subtype B (isolate HXB2) (HIV-1), UniProt P04585)
Assay: HIV-1 reverse transcriptase inhibitory activity (RT polymerase assay)
Assay type: biochemical
Details: HIV-1 RT wild-type enzyme 83 pM; RNA-dependent DNA polymerase activity; read-out: IC50
Method in brief: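 Enzyme and compound were preincubated 30 min at room temperature, then RNA/DNA hybrid (16.6 nM final; HCV-derived RNA, biotinylated primer) plus 2 μM dNTPs and 66.6 nM Ru-dUTP added, 90 min at 37 °C. Avidin capture and ECL counting; percent inhibition relative to DMSO (0%) and 1 μM efavirenz (100%), four-parameter IC50 fit.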

SMILES	pIC50
N#Cc1cc(Cl)cc(Oc2c(C(F)(F)F)ncn(Cc3cnc(C(F)F)[nH]c3=O)c2=O)c1 [Example 157, 3-chloro-5-((1-((2-(difluoromethyl)-6-oxo-1,6-dihydropyrimidin-5-yl)methyl)-6-oxo-4-(trifluoromethyl)-1,6-dihydropyrimidin-5-yl)oxy)benzonitrile]	7.49
N#Cc1cc(Cl)cc(Oc2c(C(F)(F)F)ncn(Cc3cnc(-c4ccnc5[nH]ccc45)[nH]c3=O)c2=O)c1 [Example 158, 3-chloro-5-((6-oxo-1-((6-oxo-2-(1H-pyrrolo[2,3-b]pyridin-4-yl)-1,6-dihydropyrimidin-5-yl)methyl)-4-(trifluoromethyl)-1,6-dihydropyrimidin-5-yl)oxy)benzonitrile]	7.96
N#Cc1cc(Cl)cc(Oc2c(C(F)(F)F)ncn(Cc3cnc(-c4ccc(OC(F)F)cc4)[nH]c3=O)c2=O)c1 [Example 159, 3-chloro-5-((1-((2-(4-(difluoromethoxy)phenyl)-6-oxo-1,6-dihydropyrimidin-5-yl)methyl)-6-oxo-4-(trifluoromethyl)-1,6-dihydropyrimidin-5-yl)oxy)benzonitrile]	7.77
N#Cc1cc(Cl)cc(Oc2c(C(F)F)ncn(Cc3ccc(=O)[nH]n3)c2=O)c1 [Example 160, 3-chloro-5-((4-(difluoromethyl)-6-oxo-1-((6-oxo-1,6-dihydropyridazin-3-yl)methyl)-1,6-dihydropyrimidin-5-yl)oxy)benzonitrile]	7.59
N#Cc1cccc(Oc2c(C(F)(F)F)ncn(Cc3ccc(=O)[nH]n3)c2=O)c1F [Example 161, 2-fluoro-3-(6-oxo-1-((6-oxo-1,6-dihydropyridazin-3-yl)methyl)-4-(trifluoromethyl)-1,6-dihydropyrimidin-5-yloxy)benzonitrile]	7.62
N#Cc1cc(Cl)cc(Oc2c(OC(F)F)ncn(Cc3ccc(=O)[nH]n3)c2=O)c1 [Example 162, 3-chloro-5-(4-(difluoromethoxy)-6-oxo-1-((6-oxo-1,6-dihydropyridazin-3-yl)methyl)-1,6-dihydropyrimidin-5-yloxy)benzonitrile]	7.10
N#Cc1cc(Oc2c(C(F)(F)F)ncn(Cc3ccc(=O)[nH]n3)c2=O)cc(OC(F)F)c1 [Example 163, 3-(difluoromethoxy)-5-(6-oxo-1-((6-oxo-1,6-dihydropyridazin-3-yl)methyl)-4-(trifluoromethyl)-1,6-dihydropyrimidin-5-yloxy)benzonitrile]	7.66
Cc1c(C#N)cc(F)cc1Oc1c(C(F)(F)F)ncn(Cc2ccc(=O)[nH]n2)c1=O [Example 164, 5-fluoro-2-methyl-3-(6-oxo-1-((6-oxo-1,6-dihydropyridazin-3-yl)methyl)-4-(trifluoromethyl)-1,6-dihydropyrimidin-5-yloxy)benzonitrile]	8.15
N#Cc1cccc(Oc2c(C(F)(F)F)ncn(Cc3cc(-c4ccc(F)cc4)c(=O)[nH]n3)c2=O)c1F [Example 165, 2-fluoro-3-((1-((5-(4-fluorophenyl)-6-oxo-1,6-dihydropyridazin-3-yl)methyl)-6-oxo-4-(trifluoromethyl)-1,6-dihydropyrimidin-5-yl)oxy)benzonitrile]	8.52
N#Cc1cc(Cl)cc(Oc2c(OC(F)F)ncn(Cc3cc(-c4ccc(F)cc4)c(=O)[nH]n3)c2=O)c1 [Example 166]	8.52
N#Cc1cc(Oc2c(C(F)(F)F)ncn(Cc3cc(-c4ccc(F)cc4)c(=O)[nH]n3)c2=O)cc(OC(F)F)c1 [Example 167, 3-(difluoromethoxy)-5-((1-((5-(4-fluorophenyl)-6-oxo-1,6-dihydropyridazin-3-yl)methyl)-6-oxo-4-(trifluoromethyl)-1,6-dihydropyrimidin-5-yl)oxy)benzonitrile]	8.22
Cc1c(C#N)cc(F)cc1Oc1c(C(F)(F)F)ncn(Cc2cc(-c3ccc(F)cc3)c(=O)[nH]n2)c1=O [Example 168, 5-fluoro-3-((1-((5-(4-fluorophenyl)-6-oxo-1,6-dihydropyridazin-3-yl)methyl)-6-oxo-4-(trifluoromethyl)-1,6-dihydropyrimidin-5-yl)oxy)-2-methylbenzonitrile]	8.30
Cc1ncn(Cc2cc(-c3ccc(F)cc3)c(=O)[nH]n2)c(=O)c1Oc1cc(Cl)cc(C#N)c1 [Example 169, 3-chloro-5-((1-((5-(4-fluorophenyl)-6-oxo-1,6-dihydropyridazin-3-yl)methyl)-4-methyl-6-oxo-1,6-dihydropyrimidin-5-yl)oxy)benzonitrile]	8.40
CC(F)(F)c1ncn(Cc2cc(-c3ccc(F)cc3)c(=O)[nH]n2)c(=O)c1Oc1cc(Cl)cc(C#N)c1 [Example 170, 3-chloro-5-((4-(1,1-difluoroethyl)-1-((5-(4-fluorophenyl)-6-oxo-1,6-dihydropyridazin-3-yl)methyl)-6-oxo-1,6-dihydropyrimidin-5-yl)oxy)benzonitrile]	8.30
CC(F)(F)c1ncn(Cc2cc(-c3ccc(F)cc3)c(=O)[nH]n2)c(=O)c1Oc1cccc(C#N)c1F [Example 171, 3-((4-(1,1-difluoroethyl)-1-((5-(4-fluorophenyl)-6-oxo-1,6-dihydropyridazin-3-yl)methyl)-6-oxo-1,6-dihydropyrimidin-5-yl)oxy)-2-fluorobenzonitrile]	8.52
N#Cc1cc(Cl)cc(Oc2c(C(F)(F)F)ccn(Cc3cc(C(F)F)n[nH]c3=O)c2=O)c1 [Example 172, 3-chloro-5-((1-((6-(difluoromethyl)-3-oxo-2,3-dihydropyridazin-4-yl)methyl)-2-oxo-4-(trifluoromethyl)-1,2-dihydropyridin-3-yl)oxy)benzonitrile]	8.30
N#Cc1cc(Cl)cc(Oc2c(C(F)F)ncn(Cc3cc(C(F)F)n[nH]c3=O)c2=O)c1 [Example 173, 3-chloro-5-((4-(difluoromethyl)-1-((6-(difluoromethyl)-3-oxo-2,3-dihydropyridazin-4-yl)methyl)-6-oxo-1,6-dihydropyrimidin-5-yl)oxy)benzonitrile]	8.22
N#Cc1cccc(Oc2c(C(F)(F)F)ncn(Cc3cc(C(F)F)n[nH]c3=O)c2=O)c1F [Example 174, 3-((1-((6-(difluoromethyl)-3-oxo-2,3-dihydropyridazin-4-yl)methyl)-6-oxo-4-(trifluoromethyl)-1,6-dihydropyrimidin-5-yl)oxy)-2-fluorobenzonitrile]	8.30
CC(F)(F)c1ncn(Cc2cc(C(F)F)n[nH]c2=O)c(=O)c1Oc1cc(Cl)cc(C#N)c1 [Example 175, 3-chloro-5-((4-(1,1-difluoroethyl)-1-((6-(difluoromethyl)-3-oxo-2,3-dihydropyridazin-4-yl)methyl)-6-oxo-1,6-dihydropyrimidin-5-yl)oxy)benzonitrile]	8.52
Cc1ncn(Cc2cc(C(F)F)n[nH]c2=O)c(=O)c1Oc1cc(Cl)cc(C#N)c1 [Example 176, 3-chloro-5-((1-((6-(difluoromethyl)-3-oxo-2,3-dihydropyridazin-4-yl)methyl)-4-methyl-6-oxo-1,6-dihydropyrimidin-5-yl)oxy)benzonitrile]	8.22
CC(F)(F)c1ncn(Cc2cc(C(F)F)n[nH]c2=O)c(=O)c1Oc1cccc(C#N)c1F [Example 177, 3-((4-(1,1-difluoroethyl)-1-((6-(difluoromethyl)-3-oxo-2,3-dihydropyridazin-4-yl)methyl)-6-oxo-1,6-dihydropyrimidin-5-yl)oxy)-2-fluorobenzonitrile]	7.77
